Source: patent US20020111360A1, “Quinazoline formulations and therapeutic use thereof” (PARKER HUGHES INSTITUTE, priority 1999, published 2002)
Where a name gives a salt, the structure may show the parent alone.

Row | melting point | Compound
1 | 228 to 230 °C | COc1cc2ncnc(Nc3cc(F)c(O)c(F)c3)c2cc1OC (as salt: salt) [P-408, 4-(4′-Hydroxyl-3′,5′-difluorophenyl)-amino-6,7-dimethoxy-quinazoline]
2 | 185 to 187 °C | COc1cc2ncnc(Nc3ncccc3O)c2cc1OC [P-150, 4-[(3′-Hydroxylpyridine)-2′]-amino-6,7-dimethoxyquinazoline]
3 | 275 to 279 °C | COc1cc2ncnc(Nc3cc(Br)c(C)c(Br)c3)c2cc1OC [P-212, 4-(3′,5′-Dibromo-4′-methylphenyl)-amino-6,7-dimethoxyquinazoline]
4 | 248 to 250 °C | COc1cc2ncnc(Nc3ccc(O)c(I)c3)c2cc1OC (as salt: salt) [P-299, 4-(4′-Hydroxy-3′-iodophenyl)-amino-6,7-dimethoxyquinazoline]
5 | 215 to 218 °C | COc1cc2ncnc(Nc3ccccc3CO)c2cc1OC [P-191, 4-(6′-Hydroxymethylphenyl)-amino-6,7-dimethosyquinazoline]
6 | 254 to 256 °C | COc1cc2ncnc(Nc3ccc4c(c3)Cc3cc(Br)ccc3-4)c2cc1OC (as salt: salt) [P-160, 4-[(7′-Bromofluorene)-2]-amino-6,7-dimethoxyquinazoline]
7 | 235 to 237 °C | COc1cc2ncnc(Nc3ccccc3OC(F)(F)F)c2cc1OC (as salt: salt) [P-365, 4-(2′-Trifluoromethoxylphenyl)-amino-6,7-dimethoxyquinazoline]
8 | 245 to 247 °C | COc1cc2ncnc(Nc3ccc(O)cc3Cl)c2cc1OC (as salt: salt) [P-278, 4-(4′-Hydroxyl-2′-chlorophenyl)-amino-6,7-dimethoxy-quinazoline]
9 | > 300 °C | COc1cc2ncnc(Nc3cnc(O)nc3O)c2cc1OC [P-215, 4-(2′,4′-Dihydroxyl-1′,3′-diazine-5′)-amino-6,7-dime-thoxyquinazoline]
10 | 225 to 230 °C | COc1cc2ncnc(Nc3ccccc3I)c2cc1OC (as salt: salt) [P-270, 4-(2′-Iodophenyl)-amino-6,7-dimethoxyquinazoline]
11 | 270 to 272 °C | COc1cc2ncnc(Nc3cc(C(F)(F)F)cc(C(F)(F)F)c3)c2cc1OC (as salt: salt) [P-366, 4-(3′,5′-Ditrifluoromethylphenyl)-amno-6,7-dimethoxyquinazoline]
12 | 241 to 243 °C | COc1cc2ncnc(Nc3ccccc3Br)c2cc1OC (as salt: salt) [P-261, 4-(2′-Bromophenyl)-amino-6,7-dimethoxyquinazoline]
13 | 250 to 255 °C | COc1cc2ncnc(Nc3c(Br)cc(Br)cc3Br)c2cc1OC [P-222, 4-(2′,4′,6′-Tribromophenyl)amino-6,7-dimethoxyquinazoline]
14 | 222 to 223 °C | COc1cc2ncnc(Nc3ccc(Br)cc3CO)c2cc1OC (as salt: salt) [P-190, 4-(4′-Bromo-6′-hydroxymethylphenyl)-amino-6,7-dimethoxyquinazoline]
15 | 240 to 242 °C | COc1cc2ncnc(Nc3ccc(I)cc3)c2cc1OC (as salt: salt) [P-300, 4-(4′-Iodophenyl)-amino-6,7-dimethoxyquinazoline]
16 | > 300 °C | COc1cc2ncnc(Nc3ccc(O)c(C(=O)O)c3)c2cc1OC [P-182, 4-(4′-Hydroxyl-3′-Carboxyphenyl)-amino-6,7-dimethoxyquinazoline]
17 | 225 to 228 °C | COc1cc2ncnc(Nc3ccc(C)c(Br)c3)c2cc1OC (as salt: salt) [P-111, 4-(3′-Bromo-4′-methylphenyl)-amino-6,7-dimethoxyquinazoline]

Row | melting point | Compound
18 | 215 to 218 °C | COc1cc2ncnc(Nc3cccc(C(C)O)c3)c2cc1OC (stereo not shown) [P-276, 4-[3′-(1″-Hydroxyethyl)]-amino-6,7-dimethoxyquinazoline]
19 | 255 to 257 °C | COc1cc2ncnc(Nc3cc(-c4ccccc4)c(O)c(-c4ccccc4)c3)c2cc1OC [P-277, 4-(4′-Hydroxy-3′,5′-diphenylphenyl)-amino-6,7-dime-hoxyquinazoline]
20 | 235 to 240 °C | COc1cc2ncnc(Nc3ccc(CCO)cc3)c2cc1OC [P-265, 4-[4′-(2″-Hydroxylethylphenyl)]-amino-6,7-dimethoxyqui-nazoline]
21 | 218 to 220 °C | COc1cc2ncnc(Nc3c(O)ccc4ccccc34)c2cc1OC (as salt: salt) [P-275, 4-(2′-Naphthol-1)-amino-6,7-dimethoxyquinazoline]
22 | 243 to 246 °C | COc1cc2ncnc(Nc3c(Br)cccc3Br)c2cc1OC [P-262, 4-(2′,6′-Dibromophenyl)-amino-6,7-dimethoxyquinazoline]
23 | 282 to 284 °C | COc1cc2ncnc(Nc3cc(Br)c(C)cc3Br)c2cc1OC (as salt: salt) [P-211, 4-(2′,5′-Dibromo-4′-methylphenyl)-amino-6,7-dimethoxyquinazoline]
24 | 240 °C (dec.) | COc1cc2ncnc(Nc3ccc(O)cc3O)c2cc1OC [P-192, 4-(2′,4′-Dihydroxyphenyl)-amino-6,7-dimethoxyquinazoline]
25 | 245 to 248 °C | COc1cc2ncnc(Nc3ccc(Cl)c4ccccc34)c2cc1OC (as salt: salt) [P-415, 4-(4′-Chloronaphthy-1′)-amino-6,7-dimethoxyquinazoline]
26 | 242 to 245 °C | COc1cc2ncnc(Nc3ccccc3C(F)(F)F)c2cc1OC [P-228, 4-(2′-Trifluoromethylphenyl)-amino-6,7-dimethoxyquinazoline]
27 | 280 to 282 °C | COc1cc2ncnc(Nc3ccc(C(c4ccc(N)cc4)(C(F)(F)F)C(F)(F)F)cc3)c2cc1OC (as salt: salt) [P-352, 4-{4′-[2″-(4″′-Aminophenyl)-hexafluoropropyl]phenyl}-amino-6,7-dimethoxyquinazoline]
28 | 293 to 295 °C | COc1cc2ncnc(Nc3cc(Cl)c(O)c(Cl)c3)c2cc1OC [P-189, 4-(4′-Hydroxyl-3′,5′-dichlorophenyl)amino-6,7-dimethoxyquinazoline]
29 | 243 to 245 °C | COc1cc2ncnc(Nc3ccc(C(F)(F)F)cc3)c2cc1OC [P-223, 4-(4′-Trifluoromethylphenyl)-amino-6,7-dimethoxyquinazoline]
30 | 295 °C (dec.) | COc1cc2ncnc(Nc3cc(Cl)ccc3O)c2cc1OC (as salt: salt) [P-93, 4-(3′-Chlooro-6′-hydroxylphenyl)amino-6,7-dimethoxyquinazoline]
31 | 204 to 205 °C | COc1cc2ncnc(Nc3cccc4c(O)cccc34)c2cc1OC (as salt: salt) [P-293, 4-(1′-Hydroxy-naphthyl-5′)-amino-6,70-dimethoxyquina-zoline]
32 | 259 to 260 °C | COc1cc2ncnc(Nc3cc(I)c(O)c(I)c3)c2cc1OC (as salt: salt) [P-294, 4-(4′-Hydroxy-3,5-diiodophenyl)-amino-6,7-dimethoxy-quinazoline]
33 | 268 to 270 °C | COc1cc2ncnc(Nc3ccc(O)c(F)c3)c2cc1OC (as salt: salt) [P-369, 4-(4′Hydroxyl-3′-fluorophenyl)-amino-6,7-dimethoxyquinazoline]
34 | 233 to 236 °C | COc1cc2ncnc(Nc3ccc(C)c(Br)c3Br)c2cc1OC [P-210, 4-(2′,3′-Dibromo-4′-methylphenyl)-amino-6,7-dimethoxyquinazoline]
